{
  "source": "paper PMC5572722",
  "about": "“Dimerization in tailoring uptake efficacy of the HSV-1 derived membranotropic peptide gH625” (Scientific Reports, 2017)",
  "key": {"[1]": {"assay": "GUV image analysis, shape descriptors (light sheet fluorescence microscopy)", "details": "[(treated GUVs − control GUVs)/control GUVs]*100", "text": "GUVs appear dark against the background as a consequence of the difference in refractive index of GUVs contents (sucrose solution) and the surrounding medium (glucose solution). A white halo appears around the vesicle. Formation of pores and of protuberances may be thus evidenced. GUVs appear under differential interference contrast (DIC) round shaped with an average smaller area compared to GUVs treated with gH625 (Table 5, Figure 8). […] The addition of gH625-H7 to GUVs produced a similar effect of gH625 with the only difference that it induces an enhancement of the GUVs fusion tendency (Figure 8). gH625 and gH625-H7 enhance the mean area and perimeter of GUVs (Figure 9A,C). […] Main shape descriptor analysis confirms that the addition of gH625 or gH625-H7 induces an increase in area and perimeter also indicating a decrease in circularity and roundness parameters (Table 5).\nLUVs and SUVs for fluorescence,circular dichroism and surface plasmon resonance, consisting of DOPG, DOPG/Chol (60/40 mol/mol), DOPC/Chol (60/40 mol/mol), and when necessary containing Rho-PE and NBD-PE, or ANTS and DPX, were prepared in 5 mM HEPES, 100 mM NaCl, pH 7.4[66]. Aliquots containing the necessary amount of lipids were dried from a chloroform solution with a nitrogen gas stream and lyophilized overnight to produce dry lipid films which were then resuspended in buffer and vortexed for 1 h; the lipid suspension was freeze-thawed 6 times to obtain multilamellar vesicles (MLV). […] Lipid concentrations of liposome suspensions were determined by phosphate analysis. […]\nGUVs were used upon one day from preparation. Ten microliters of fluorescent GUVs were analyzed (before and after the addition of gH625 or gH625-H7) under a custom made light sheet fluorescent microscope equipped with five laser lines (λ = 375 nm Coherent Cube, λ = 405 nm Coherent Cube, λ = 473 nm Laserworld Blue-200, λ = 532 nm Coherent Compass 215 M-10 DPSS laser and λ = 632.8 nm Thorlabs HRR005S Helium-Neon laser), a motorized microscope MS-2000 XY stage with LX-4000 controller (Applied Scientific Instrumentation), a Focus Drive motorized Z stage (Tofra Inc.) and Nano-F200S nanopositioner controlled by Nanodrive® controller (Mad City Labs); all devices were managed by MicroManager software. […] The emerging fluorescence was detected by the Orca flash 2.8 sCMOS camera (Hamamatsu) driven by Dalsa Xcelera (Teledyne DALSA) PCIe card mounted on AMD FX-8 core 3.5 GHz, 32 Gb RAM pc running Windows 8.1 (Microsoft). […] GUV parameters were calculated by the Analyze particles ImageJ plugin; a minimum size of 5 μm^2 and circularity of at least […] Circularity=4π×[Area]/[Perimeter]^2 with a value of 1.0 indicating a perfect circle) was considered. […]"}, "[2]": {"assay": "Acceptor photobleaching FRET, GUV fusion", "details": "NBD/Rhodamine GUVs mixed 1:4 with unlabelled GUVs, peptide:GUVs ratio 0.5", "text": "Figure 10 Mean fluorescence of GUVs suspension resulting after gH625 or gH625-H7 administration, calculated by the AccPbFRET plug in of ImageJ. The FRET efficiency E is 0.729, calculated as follows: E = 1 − (F Donor quenched by acceptor/F Donor de quenched) (A). Time course of FRET effect due to gH625 or gH625-H7 administration to GUVs. Values are expressed as integrated density, defined as the mean gray value per the mean area. Each time point represents the same field acquired in both channels. Each data set represents the mean of at least 10 GUVs for each field (B,C).\nTo evaluate the fusion of GUVs due to the addition of gH625 and gH625-H7, a slightly modified protocol for acceptor photobleaching FRET was performed. […] An aliquot of the mix was charged in the Burker’s chamber under Axioskop (Zeiss) fluorescence microscope; images were acquired using Axiocam Mrc5 CCD camera (Zeiss) in both at 525 nm and 615 nm and analysed with the Physiology module of Axiovision software 4.8 (Zeiss) to calculate the basic fluorescence of the donor. Samples were then treated with gH625 and gH625-H7 to a peptide:GUVs ratio of 0.5 and images were immediately acquired to calculate the fluorescence of the donor and the photobleaching of the acceptor (only used as a control for the amount of bleaching) after the exposure to peptides. […]"}},
  "note": "Positions of bridges follow the written chain, without caps; N, C: chain ends. Residues, ends and D or L forms follow the SMILES beside them. Chains are numbered I, II in the order given. No end group written: not given here.",
  "data": [
    {"molecule": "I: HGLASTLTRWAHYNALIRAFGCGKKKK-NH2 / II: HGLASTLTRWAHYNALIRAFGCGKKKK-NH2 (disulfide I:22-II:22) [gH625-H7]", "values": [
      {"measurement": "Var % circularity versus GUVs alone", "setting": "[1]", "value": "−33.33", "unit": "%"},
      {"measurement": "Var % roundness versus GUVs alone", "setting": "[1]", "value": "−18.18", "unit": "%"},
      {"measurement": "increase of donor (NBD) fluorescence compared to GUVs alone", "setting": "[2]", "value": 3.92, "unit": "fold"}
    ]},
    {"molecule": "CC[C@H](C)[C@H](NC(=O)[C@H](CC(C)C)NC(=O)[C@H](C)NC(=O)[C@H](CC(N)=O)NC(=O)[C@H](Cc1ccc(O)cc1)NC(=O)[C@H](Cc1c[nH]cn1)NC(=O)[C@H](C)NC(=O)[C@H](Cc1c[nH]c2ccccc12)NC(=O)[C@H](CCCNC(=N)N)NC(=O)[C@@H](NC(=O)[C@H](CC(C)C)NC(=O)[C@@H](NC(=O)[C@H](CO)NC(=O)[C@H](C)NC(=O)[C@H](CC(C)C)NC(=O)CNC(=O)[C@@H](N)Cc1c[nH]cn1)[C@@H](C)O)[C@@H](C)O)C(=O)N[C@@H](CCCNC(=N)N)C(=O)N[C@@H](C)C(=O)N[C@@H](Cc1ccccc1)C(N)=O", "note": "[gH625] (H-HGLASTLTRWAHYNALIRAF-NH2)", "values": [
      {"measurement": "Var % circularity versus GUVs alone", "setting": "[1]", "value": "−8.33", "unit": "%"},
      {"measurement": "Var % roundness versus GUVs alone", "setting": "[1]", "value": "−10.60", "unit": "%"},
      {"measurement": "increase of donor (NBD) fluorescence compared to GUVs alone", "setting": "[2]", "value": 3.71, "unit": "fold"}
    ]}
  ]
}
